pKd: −log10 of the molar value. Where two headings read alike, the source gives them in different places.

The values that follow come from publication PMC6910946, “Multiple roles of Bet v 1 ligands in allergen stabilization and modulation of endosomal protease activity” (Allergy, 2019).

Experiment [1] relates to CD11c+ murine bone marrow–derived dendritic cells (BMDCs). In words: In vitro antigen uptake of labeled Bet v 1 by BMDCs. The following applies: Bet v 1 with or without ligand; 1, 6, 24 h; FACS. Format: cell-based, mouse. As for the experimental part:
The ability of ligand‐loaded Bet_v_1 to induce IgE‐antigen cross‐linking and basophil degranulation was assessed by mediator‐release assays using rat basophil (RBL‐2H3) cells, transfected with the human high‐affinity IgE receptor (FcεRI), as previously described.2, 24 In vitro uptake of labeled Bet_v_1 was performed using CD11c^+ murine bone marrow–derived dendritic cells (BMDCs). The maturation of human monocyte‐derived dendritic cells (moDCs) was analyzed as previously described.2 T‐cell proliferation assays using CD4^+ T‐cell hybridomas were performed as previously described.17 A detailed description of the in vitro assays is available (Appendix [Link], [Link]).
BMDCs from C57BL/6 mouse bone marrow were isolated as described previously.^5 cultured in BMDC medium (RPMI 1640, 5% fetal calf serum, 2 mM L-glutamine, 1% penicillin-streptomycin, 20% granulocyte-macrophage colony-stimulating factor supernatant and 200 µM β-mercaptoethanol) (BMDC medium) for 10 days, and stored frozen in liquid nitrogen. BMDCs were treated over a certain period of time (24, 6 or 1 hours) with 0.5 µg of Bet v 1 per 2x10^5 cells. Bet v 1 was labeled with pHrodo™ Red succinimidyl ester (Thermo Fisher Scientific, Waltham, MA, USA) and pre-incubated with one of the ligands (DOC, Q3OS or PPE1). CD11c^+ cells were analyzed via flow cytometry (allophycocyanin-conjugated anti-mouse CD11c antibody, clone N418; eBioscience, Inc., San Diego, CA, USA) on a FACSCanto II instrument (BD Biosciences, San Jose, CA, USA). For the live/dead staining a fixable viability stain 450 (BD Biosciences) was used. Granulocytes and monocytes were excluded via the V450 Rat anti-Mouse LY-6G and LY-6C (BD Biosciences) antibody. Data were recorded and analyzed using the BD FACSDiva software (BD Biosciences). Statistical analysis was performed using ANOVA with a Bonferroni post-test to compare all groups. The data represent the mean of duplicate experiments and are derived from at least 2 independent experiments.

For another experiment, the target named is T1, Bet_v_1 (Betula pendula, UniProt P15494).
T1 construct: made in house
T1 sequence (P15494 1-160): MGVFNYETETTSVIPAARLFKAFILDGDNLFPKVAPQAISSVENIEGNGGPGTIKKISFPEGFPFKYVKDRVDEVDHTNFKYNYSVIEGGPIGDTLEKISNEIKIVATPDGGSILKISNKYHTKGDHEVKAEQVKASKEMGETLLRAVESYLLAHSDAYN
In words: Surface acoustic wave (SAW) interaction studies, determination of Kd. It counts as binding. From the text: Surface acoustic wave (SAW) technology and NMR spectroscopy were used to observe the interaction of Bet_v_1 with the selected compounds, including determination of the dissociation constant (K d). The influence of ligand binding on the secondary structure elements and the thermal stability of Bet_v_1 was monitored using circular dichroism (CD, JASCO J‐815 spectropolarimeter, Jasco) and Fourier transform infrared (FTIR) spectroscopy (Tensor II FTIR system, Bruker Optics Inc). A detailed description of these methods is available (Appendix [Link], [Link]).
To assess the interactions between Bet_v_1 and Q3OS, DOC, PPE1, LTA, or LPS, we determined the dissociation constants (K d) using SAW binding assays (Table 1, Figure S1), a more quantitative approach than previously described qualitative assays.11, 25 In addition, the LPS‐substructure Kdo2‐Lipid A (Kdo2) was used for binding studies, due to its more homogenous structure but similar immune stimulatory activity when compared to native LPS.
For the determination of the affinity constant Kd, we used surface acoustic wave (SAW) technology. The interaction of the six ligands with Bet v 1 was investigated using a sam® 5BLUE biosensor instrument (Nanotemper, Munich, Germany). Bet v 1 was immobilized in PBS on the surface of a SAW CM-Dextran 3D sensor chip. […] For calculating the affinity constant Kd, different concentrations of the ligands dissolved in a 5 mM sodium phosphate buffer, pH 7.4, were applied to the Bet v 1-coupled chip. Depending on the ligand, the concentration range of the injected ligand varied between 5 µM and 500 µM. For the removal of residual ligand between the sample injections, the chip was washed with regeneration buffer (10 mM citric acid buffer, pH 2.8). The recorded SAW phase changes were analyzed using the software TraceDrawer 1.7 (Ridgeview Instruments, Uppsala, Sweden). The affinity constant Kd was calculated by kinetic evaluation and affinity/EC50 estimation. For kinetic evaluation, an OneToOne curve fit was chosen to match the raw data. Experiments were performed with two coated chips in duplicate, and the coupling efficiency was evaluated using a mouse monoclonal anti-Bet v 1 antibody.

The target of the next experiment is T2, Bet v 1 / human legumain (Betula pendula, UniProt P15494).
T2 construct: made in house
T2 sequence (P15494 2-160 limits assumed): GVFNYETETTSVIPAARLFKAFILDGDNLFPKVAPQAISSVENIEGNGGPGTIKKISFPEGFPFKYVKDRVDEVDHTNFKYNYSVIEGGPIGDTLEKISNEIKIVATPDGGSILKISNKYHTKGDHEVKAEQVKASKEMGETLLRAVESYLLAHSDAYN
In words: Bet v 1 in vitro proteolytic degradation assay with legumain. Format: biochemical. The method, then:
(§1) The endolysosomal degradation assay was performed with ligand‐bound (either DOC, PPE1, or Q3OS in 10× molar excess) and Bet_v_1 without ligands (apo‐Bet_v_1) as previously described.21 Recombinant human cathepsin S and human legumain were used in proteolytic degradation assays. Experimental details are described in the Appendix [Link], [Link].
(§2) Recombinant human cathepsin S and human legumain were heterologously expressed and purified as described previously.^9,10 Bet v 1 (20 µM) was incubated with ligand (100 µM) in digestion buffer (0.1 M sodium acetate, pH 5.0, 0.1 M sodium chloride, 5 mM EDTA, and 2 mM DTT) at room temperature prior to the addition of cathepsin S (1 µM) or legumain (2 µM). […] At each time point, the reaction was halted by the addition of E64 (for cathepsin S) or YVAD-CMK (for legumain) at a final concentration of 50 µM, and analyzed by SDS-PAGE. Control reactions without the addition of protease were performed. The generated peptides were analyzed using mass spectrometry.

The target in experiment [2] is T3, Bet v 1 / human cathepsin S (Betula pendula, UniProt P15494).
T3 construct: made in house
T3 sequence (P15494 2-160 limits assumed): T2 sequence (P15494 2-160 limits assumed)
In words: Bet v 1 in vitro proteolytic degradation assay with cathepsin S. Format: biochemical. The following applies: for processing (degradation) of Bet v 1 by cathepsin S: Bet v 1 20 µM, ligand 100 µM, cathepsin S 1 µM, pH 5.0, 0-24 h, SDS-PAGE. As for the experimental part:
as §1, §2

For another experiment, the system named is LPS‐stimulated human DCs. On the set-up: method as in PMID 19454659, PMID 17451798. The following applies: cited from earlier work.
The mark [3] stands for this setting: Bet v 1 immobilized on chip, ligands in 5 mM sodium phosphate buffer pH 7.4, read-out: Binding affinity K d (SAW).
The mark [4] stands for this setting: relative abundance of peptides by mass spectrometry.

As to `C[C@H](CCC(=O)O)[C@H]1CC[C@H]2[C@@H]3CC[C@@H]4C[C@H](O)CC[C@]4(C)[C@H]3C[C@H](O)[C@]12C` [DOC, sodium deoxycholate, reference compound], in experiment [1], the “antigen uptake of pHrodo Red‐labeled Bet v 1” value (“antigen uptake” below) is reported as “None of the above described readouts was influenced”. For the same compound, the pKd at Bet_v_1 (Binding affinity K d (SAW)) is 4.23; at Bet_v_1 (Kd (SAW, Fig. S1)), 4.23. For the same compound, the “processing (degradation) of Bet v 1 by legumain” value on Bet v 1 / human legumain (Bet v 1 20 µM, ligand 100 µM, legumain 2 µM, pH 5.0, 0-24 h, SDS-PAGE) is reported as “strongly retarded”. Besides, the “processing (degradation) of Bet v 1 by cathepsin S” value in experiment [2] is “strongly retarded”.

Turning to `CCC1C(=O)CC(O)C1/C=C/C(O)CCCCCCCC(=O)O` (centres unmarked) [PPE1, E1 phytoprostanes], in experiment [1], the “antigen uptake” value is on record as “None of the above described readouts was influenced”. Moreover, the pKd at Bet_v_1 (setting [3]) was 6.30. For the same compound, the “Bet v 1 cleavage site frequency with legumain” value at Bet v 1 / human legumain (setting [4]) is “cleavage frequency after Asn120 and Asp157 strongly increased”. Further, the “production of IL‐12p70” value in the experiment with LPS‐stimulated human DCs was “inhibits the production of IL‐12p70”. Further, the “processing (degradation) of Bet v 1 by cathepsin S” value in experiment [2] is reported as “strongly retarded”. Further, the “Bet v 1 cleavage site frequency with cathepsin S” value in experiment [2] (setting [4]) is “preferential cleavage was observed after Phe20, Lys21, and in the C‐terminal region”.

For the compound `O=c1c(O[C@@H]2O[C@H](CO)[C@@H](O)[C@H](O)[C@H]2O[C@@H]2O[C@H](CO)[C@@H](O)[C@H](O)[C@H]2O)c(-c2ccc(O)c(O)c2)oc2cc(O)cc(O)c12` [Q3OS, quercetin 3‐O‐sophoroside], the “antigen uptake” value in experiment [1] was “None of the above described readouts was influenced”. Also, the pKd was 5.82 on Bet_v_1 (setting [3]) and 5.83 at Bet_v_1 (Fig. S1 sensorgrams, read-out: Kd (SAW, Fig. S1)).
